Laboratory results from ChEMBL document CHEMBL1201861, “Genomics of Drug Sensitity in Cancer screening data, Wellcome Trust Sanger Institute”.
pIC50: −log10 of the molar value.

Experiments:
IST-SL2 = test: cells; format: functional, cell-based, Homo sapiens; conditions: Homo sapiens, IST-SL2;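 further: growth inhibition of human IST-SL2 cells, read out by a cell viability assay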
Description: SANGER: Inhibition of human IST-SL2 cell growth in a cell viability assay.

MFE-280 = test: cells; format: functional, cell-based; conditions: Homo sapiens;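 further: growth inhibition of MFE-280 cells, determined with a cell viability readout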
Description: SANGER: Inhibition of human MFE-280 cell growth in a cell viability assay.

NCI-H2452 = test: cells; format: functional, cell-based; conditions: Homo sapiens;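 further: growth inhibition of NCI-H2452 cells, read out with a cell viability assay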
Description: SANGER: Inhibition of human NCI-H2452 cell growth in a cell viability assay.

NCI-H2052 = test: cells; format: functional, cell-based; conditions: Homo sapiens;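 further: growth inhibition of NCI-H2052 cells, read out with a cell viability assay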
Description: SANGER: Inhibition of human NCI-H2052 cell growth in a cell viability assay.

D-392MG = test: cells; format: functional, cell-based; conditions: Homo sapiens
SCC-3 = test: cells; format: functional, cell-based, Homo sapiens; conditions: Homo sapiens, SCC-3;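 further: cell viability assay measuring inhibition of SCC-3 cell growth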
Description: SANGER: Inhibition of human SCC-3 cell growth in a cell viability assay.

ECC4 = test: cells; format: functional, cell-based, Homo sapiens; conditions: Homo sapiens, ECC4;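 further: growth inhibition of ECC4 cells, read out with a cell viability assay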
Description: SANGER: Inhibition of human ECC4 cell growth in a cell viability assay.

NCI-H1436 = test: cells; format: functional, cell-based, Homo sapiens; conditions: Homo sapiens, NCI-H1436;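 further: growth suppression of human NCI-H1436 cells, determined with a cell viability readout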
Description: SANGER: Inhibition of human NCI-H1436 cell growth in a cell viability assay.

NCI-H1437 = test: cells; format: functional, cell-based; conditions: Homo sapiens;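 further: growth inhibition of human NCI-H1437 cells, read out by a cell viability assay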
Description: SANGER: Inhibition of human NCI-H1437 cell growth in a cell viability assay.

KYSE-450 = test: cells; format: functional, cell-based; conditions: Homo sapiens;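 further: cell growth inhibition measured by a viability assay in human KYSE-450 cells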
Description: SANGER: Inhibition of human KYSE-450 cell growth in a cell viability assay.

NCI-H2122 = test: cells; format: functional, cell-based; conditions: Homo sapiens;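 further: growth inhibition of the cells, read out with a cell viability assay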
Description: SANGER: Inhibition of human NCI-H2122 cell growth in a cell viability assay.

D-542MG = test: cells; format: functional, cell-based; conditions: Homo sapiens
Description: SANGER: Inhibition of human D-542MG cell growth in a cell viability assay.

5637 = test: cells; format: functional, cell-based; conditions: Homo sapiens
Description: SANGER: Inhibition of human 5637 cell growth in a cell viability assay.

RMG-I = test: cells; format: functional, cell-based; conditions: Homo sapiens;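 further: growth inhibition of human RMG-I cells, read out with a cell viability assay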
Description: SANGER: Inhibition of human RMG-I cell growth in a cell viability assay.

RL = test: cells; format: functional, cell-based, Homo sapiens; conditions: Homo sapiens, RL
Description: SANGER: Inhibition of human RL cell growth in a cell viability assay.

THP-1 = test: cells; format: functional, cell-based, Homo sapiens; conditions: Homo sapiens, THP-1;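 further: growth inhibition of THP-1 cells, read out via a cell viability assay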
Description: SANGER: Inhibition of human THP-1 cell growth in a cell viability assay.

SW756 = test: cells; format: functional, cell-based; conditions: Homo sapiens;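 further: growth inhibition of human SW756 cells, read out with a cell viability assay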
Description: SANGER: Inhibition of human SW756 cell growth in a cell viability assay.

LB647-SCLC = test: cells; format: functional, cell-based, Homo sapiens; conditions: Homo sapiens, LB647-SCLC;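 further: cell growth inhibition, read out by a viability assay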
Description: SANGER: Inhibition of human LB647-SCLC cell growth in a cell viability assay.

CAL-62 = test: cells; format: functional, cell-based; conditions: Homo sapiens;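 further: growth inhibition of CAL-62 cells, read out with a cell viability assay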
Description: SANGER: Inhibition of human CAL-62 cell growth in a cell viability assay.

SUP-T1 = test: cells; format: functional, cell-based, Homo sapiens; conditions: Homo sapiens, SUP-T1;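 further: growth inhibition of human SUP-T1 cells, read out as cell viability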
Description: SANGER: Inhibition of human SUP-T1 cell growth in a cell viability assay.

NCI-H345 = test: cells; format: functional, cell-based, Homo sapiens; conditions: Homo sapiens, NCI-H345;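 further: growth inhibition of NCI-H345 cells measured with a cell viability assay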
Description: SANGER: Inhibition of human NCI-H345 cell growth in a cell viability assay.

NCI-H1755 = test: cells; format: functional, cell-based; conditions: Homo sapiens;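 further: cell viability readout used to measure growth inhibition of NCI-H1755 cells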
Description: SANGER: Inhibition of human NCI-H1755 cell growth in a cell viability assay.

CAL-51 = test: cells; format: functional, cell-based; conditions: Homo sapiens;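 further: human CAL-51 cell line, growth inhibition read out via a cell viability assay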
Description: SANGER: Inhibition of human CAL-51 cell growth in a cell viability assay.

BXPC-3 = test: cells; format: functional, cell-based; conditions: Homo sapiens;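 further: growth inhibition of human BxPC-3 cells, read out by a cell viability assay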
Description: SANGER: Inhibition of human BxPC-3 cell growth in a cell viability assay.

SU-DHL-1 = test: SANGER: Inhibition of human SU-DHL-1 cell growth in a cell viability assay.; format: functional, cell-based; conditions: Homo sapiens, SU-DHL-1
Daoy = test: cells; format: functional, cell-based; conditions: Homo sapiens;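 further: daoy cell growth inhibition, read out as cell viability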
Description: SANGER: Inhibition of human Daoy cell growth in a cell viability assay.

G-402 = test: cells; format: functional, cell-based; conditions: Homo sapiens
Description: SANGER: Inhibition of human G-402 cell growth in a cell viability assay.

HLE = test: cells; format: functional, cell-based; conditions: Homo sapiens;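 further: growth inhibition of human HLE cells, read out by a cell viability assay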
Description: SANGER: Inhibition of human HLE cell growth in a cell viability assay.

HT1197 = test: cells; format: functional, cell-based, HT-1197; conditions: Homo sapiens
Description: SANGER: Inhibition of human HT-1197 cell growth in a cell viability assay.

EVSA-T = test: cells; format: functional, cell-based, Homo sapiens; conditions: Homo sapiens, EVSA-T;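 further: growth inhibition of EVSA-T cells, read out with a cell viability assay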
Description: SANGER: Inhibition of human EVSA-T cell growth in a cell viability assay.

M14 = test: cells; format: functional, cell-based; conditions: Homo sapiens;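 further: growth inhibition of M14 cells, read out with a cell viability assay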
Description: SANGER: Inhibition of human M14 cell growth in a cell viability assay.

HCC1806 = test: cells; format: functional, cell-based; conditions: Homo sapiens;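 further: growth inhibition of the cancer cell line, determined with a cell viability assay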
Description: SANGER: Inhibition of human HCC1806 cell growth in a cell viability assay.

NCI-H650 = test: cells; format: functional, cell-based; conditions: Homo sapiens;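 further: growth inhibition of NCI-H650 cells, read out by a viability assay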
Description: SANGER: Inhibition of human NCI-H650 cell growth in a cell viability assay.

COR-L279 = test: SANGER: Inhibition of human COR-L279 cell growth in a cell viability assay.; format: functional, cell-based; conditions: Homo sapiens, COR-L279
CAPAN-1 = test: cells; format: functional, cell-based; conditions: Homo sapiens;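 further: growth suppression of CAPAN-1 cells, read out by a cell viability assay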
Description: SANGER: Inhibition of human CAPAN-1 cell growth in a cell viability assay.

GDM-1 = test: cells; format: functional, cell-based, Homo sapiens; conditions: Homo sapiens, GDM-1; read-out: IC50;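 further: cell viability readout used to measure growth inhibition of human GDM-1 cells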
Description: SANGER: Inhibition of human GDM-1 cell growth in a cell viability assay.

CPC-N = test: cells; format: functional, cell-based, Homo sapiens; conditions: Homo sapiens, CPC-N;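 further: growth inhibition of CPC-N cells, with a cell viability assay as the readout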
Description: SANGER: Inhibition of human CPC-N cell growth in a cell viability assay.

SW1573 = test: cells; format: functional, cell-based; conditions: Homo sapiens;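 further: growth inhibition of SW1573 cells, read out with a cell viability assay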
Description: SANGER: Inhibition of human SW1573 cell growth in a cell viability assay.

BFTC-905 = test: cells; format: functional, cell-based; conditions: Homo sapiens
Description: SANGER: Inhibition of human BFTC-905 cell growth in a cell viability assay.

GMS-10 = test: cells; format: functional, cell-based; conditions: Homo sapiens;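 further: growth inhibition of GMS-10 cells, read out as cell viability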
Description: SANGER: Inhibition of human GMS-10 cell growth in a cell viability assay.

ASPC1 = test: cells; format: functional, cell-based; conditions: Homo sapiens;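 further: growth inhibition of AsPC-1 cells, read out with a cell viability assay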
Description: SANGER: Inhibition of human AsPC-1 cell growth in a cell viability assay.

ESS-1 = test: cells; format: functional, cell-based; conditions: Homo sapiens;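 further: growth inhibition of human ESS-1 cells, read out by a cell viability assay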
Description: SANGER: Inhibition of human ESS-1 cell growth in a cell viability assay.

ChaGo-K-1 = test: cells; format: functional, cell-based; conditions: Homo sapiens;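 further: growth inhibition of ChaGo-K-1 cells, read out with a cell viability assay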
Description: SANGER: Inhibition of human ChaGo-K-1 cell growth in a cell viability assay.

YAPC = test: cells; format: functional, cell-based; conditions: Homo sapiens;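 further: growth inhibition of YAPC cells, measured with a cell viability assay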
Description: SANGER: Inhibition of human YAPC cell growth in a cell viability assay.

T47D = test: cells; format: functional, cell-based; conditions: Homo sapiens;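 further: growth inhibition of human T47D cells, measured with a cell viability assay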
Description: SANGER: Inhibition of human T47D cell growth in a cell viability assay.

NCI-H889 = test: cells; format: functional, cell-based, Homo sapiens; conditions: Homo sapiens, NCI-H889;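 further: cell growth inhibition of the cell line, read out with a viability assay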
Description: SANGER: Inhibition of human NCI-H889 cell growth in a cell viability assay.

ACHN = test: cells; format: functional, cell-based; conditions: Homo sapiens;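 further: cell viability read-out used to gauge how strongly growth of human ACHN cells is suppressed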
Description: SANGER: Inhibition of human ACHN cell growth in a cell viability assay.

COR-L105 = test: cells; format: functional, cell-based; conditions: Homo sapiens
Description: SANGER: Inhibition of human COR-L105 cell growth in a cell viability assay.

CAL-85-1 = test: cells; format: functional, cell-based; conditions: Homo sapiens;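 further: growth inhibition of human CAL-85-1 cells, read out with a cell viability assay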
Description: SANGER: Inhibition of human CAL-85-1 cell growth in a cell viability assay.

A673 = test: cells; format: functional, cell-based; conditions: Homo sapiens;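 further: growth inhibition of human A673 cells, read out through a cell viability assay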
Description: SANGER: Inhibition of human A673 cell growth in a cell viability assay.

UACC-812 = test: cells; format: functional, cell-based; conditions: Homo sapiens
Description: SANGER: Inhibition of human UACC-812 cell growth in a cell viability assay.

LCLC-103H cell line = test: cells; format: functional, cell-based; conditions: Homo sapiens
Description: SANGER: Inhibition of human LCLC-103H cell growth in a cell viability assay.

NCI-H2170 = test: cells; format: functional, cell-based; conditions: Homo sapiens;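 further: cell viability assay measuring growth inhibition of human NCI-H2170 cancer cells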
Description: SANGER: Inhibition of human NCI-H2170 cell growth in a cell viability assay.

SW1783 = test: cells; format: functional, cell-based; conditions: Homo sapiens
Description: SANGER: Inhibition of human SW1783 cell growth in a cell viability assay.

MHH-ES-1 = test: cells; format: functional, cell-based; conditions: Homo sapiens
Description: SANGER: Inhibition of human MHH-ES-1 cell growth in a cell viability assay.

GP5d = test: cells; format: functional, cell-based; conditions: Homo sapiens;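 further: growth inhibition of human GP5d cells, read out with a cell viability assay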
Description: SANGER: Inhibition of human GP5d cell growth in a cell viability assay.

U2OS = test: cells; format: functional, cell-based, U-2-OS; conditions: Homo sapiens;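 further: growth inhibition of human U-2-OS cells, determined with a cell viability assay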
Description: SANGER: Inhibition of human U-2-OS cell growth in a cell viability assay.

SIG-M5 = test: cells; format: functional, cell-based, Homo sapiens; conditions: Homo sapiens, SIG-M5;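 further: cell viability assay read-out, measuring how strongly growth of cultured human SIG-M5 cells is inhibited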
Description: SANGER: Inhibition of human SIG-M5 cell growth in a cell viability assay.

C/C(=C\c1csc(C)n1)[C@@H]1C[C@@H]2O[C@]2(C)CCC[C@H](C)[C@H](O)[C@@H](C)C(=O)C(C)(C)[C@@H](O)CC(=O)O1 [PATUPILONE]
pIC50 (IST-SL2): 8.15 | pIC50 (MFE-280): < 7.49 | pIC50 (NCI-H2452): < 7.49 | pIC50 (NCI-H2052): < 7.49 | pIC50 (D-392MG): < 7.49 | pIC50 (SCC-3): < 7.49 | pIC50 (ECC4): < 7.49 | pIC50 (NCI-H1436): 8.11 | pIC50 (NCI-H1437): 9.16 | pIC50 (KYSE-450): 9.57 | pIC50 (NCI-H2122): 9.39 | pIC50 (D-542MG): < 7.49 | pIC50 5637: 9.20 | pIC50 (RMG-I): < 7.49 | pIC50 (RL): < 7.49 | pIC50 (THP-1): 7.63 | pIC50 (SW756): < 7.49 | pIC50 (LB647-SCLC): 8.51 | pIC50 (CAL-62): 9.06 | pIC50 (SUP-T1): < 7.49 | pIC50 (NCI-H345): < 7.49 | pIC50 (NCI-H1755): < 7.49 | pIC50 (CAL-51): 8.78 | pIC50 (BXPC-3): 8.76 | pIC50 (SU-DHL-1): < 7.49 | pIC50 (Daoy): > 9.90 | pIC50 (G-402): 8.28 | pIC50 (HLE): 10.08 | pIC50 (HT1197): < 7.49 | pIC50 (EVSA-T): 7.51 | pIC50 (M14): < 7.49 | pIC50 (HCC1806): 8.86 | pIC50 (NCI-H650): 9.77 | pIC50 (COR-L279): 8.03 | pIC50 (CAPAN-1): 8.40 | pIC50 (GDM-1): 8.37 | pIC50 (CPC-N): 7.97 | pIC50 (SW1573): 7.84 | pIC50 (BFTC-905): 10.30 | pIC50 (GMS-10): < 7.49 | pIC50 (ASPC1): < 7.49 | pIC50 (ESS-1): 8.82 | pIC50 (ChaGo-K-1): 8.02 | pIC50 (YAPC): < 7.49 | pIC50 (T47D): < 7.49 | pIC50 (NCI-H889): < 7.49 | pIC50 (ACHN): 9.13 | pIC50 (COR-L105): 8.02 | pIC50 (CAL-85-1): 9.18 | pIC50 (A673): 8.61 | pIC50 (UACC-812): < 7.49 | pIC50 (LCLC-103H cell line): 9.51 | pIC50 (NCI-H2170): 8.28 | pIC50 (SW1783): 8.83 | pIC50 (MHH-ES-1): 9.05 | pIC50 (GP5d): 8.51 | pIC50 (U2OS): < 7.49 | pIC50 (SIG-M5): 9.77

Cc1ccc(C(=O)Nc2ccc(CN3CCN(C)CC3)c(C(F)(F)F)c2)cc1C#Cc1cnc2cccnn12 [PONATINIB]
pIC50 (IST-SL2): < 6.29 | pIC50 (MFE-280): 6.50 | pIC50 (NCI-H2452): < 6.29 | pIC50 (NCI-H2052): 6.50 | pIC50 (D-392MG): 6.63 | pIC50 (SCC-3): < 6.29 | pIC50 (ECC4): < 6.29 | pIC50 (NCI-H1436): < 6.29 | pIC50 (NCI-H1437): < 6.29 | pIC50 (KYSE-450): 6.56 | pIC50 (NCI-H2122): < 6.29 | pIC50 (D-542MG): < 6.29 | pIC50 5637: < 6.29 | pIC50 (RMG-I): < 6.29 | pIC50 (RL): < 6.29 | pIC50 (THP-1): < 6.29 | pIC50 (SW756): < 6.29 | pIC50 (LB647-SCLC): < 6.29 | pIC50 (CAL-62): < 6.29 | pIC50 (SUP-T1): 7.00 | pIC50 (NCI-H345): < 6.29 | pIC50 (NCI-H1755): < 6.29 | pIC50 (CAL-51): < 6.29 | pIC50 (BXPC-3): 6.46 | pIC50 (SU-DHL-1): 7.20 | pIC50 (Daoy): < 6.29 | pIC50 (G-402): 7.20 | pIC50 (HLE): 6.38 | pIC50 (HT1197): < 6.29 | pIC50 (EVSA-T): < 6.29 | pIC50 (M14): < 6.29 | pIC50 (HCC1806): < 6.29 | pIC50 (NCI-H650): < 6.29 | pIC50 (COR-L279): < 6.29 | pIC50 (CAPAN-1): < 6.29 | pIC50 (GDM-1): 7.74 | pIC50 (CPC-N): < 6.29 | pIC50 (SW1573): < 6.29 | pIC50 (BFTC-905): < 6.29 | pIC50 (GMS-10): < 6.29 | pIC50 (ASPC1): < 6.29 | pIC50 (ESS-1): 6.32 | pIC50 (ChaGo-K-1): < 6.29 | pIC50 (YAPC): < 6.29 | pIC50 (T47D): < 6.29 | pIC50 (NCI-H889): < 6.29 | pIC50 (ACHN): 6.53 | pIC50 (COR-L105): < 6.29 | pIC50 (CAL-85-1): 6.75 | pIC50 (A673): < 6.29 | pIC50 (UACC-812): < 6.29 | pIC50 (LCLC-103H cell line): < 6.29 | pIC50 (NCI-H2170): < 6.29 | pIC50 (SW1783): < 6.29 | pIC50 (MHH-ES-1): < 6.29 | pIC50 (GP5d): < 6.29 | pIC50 (U2OS): < 6.29 | pIC50 (SIG-M5): 6.87
